Measured values from patent US9474775B2, “Compound, extract isolated from antrodia camphorate, and method using the same” (priority 2013, dated 2016).
Values after ≈ are worked out from the molar mass of the structure shown.

Experiments:
Format in all cases: cell-based
[1] = system: CT26 cell line (colon cancer); assay: MTT cell viability assay, CT26 cell line (colon cancer); conditions: Mus musculus, 48 hours, read-out: half maximal inhibitory concentration (IC50), CT26
Method: (§1) Cell proliferation of A549 cell line (lung cancer), CT26 cell line (colon cancer), DU145 cell line (prostate cancer), HepG2 cell line (liver cancer), PC3 cell line (prostate cancer), MDA-MB-231 cell line (breast cancer) and MCF-7 cell line (breast cancer) was assessed by MTT cell viability assay.
(§2) Above cell lines were cultured in determined medium for 24 hours. Proliferative cells were washed with PBS solution, treated with trpsin-EDTA (1×), centrifuged at 1,200 rpm for 5 min, precipitated the cells and discarded supernatant. The cells were resuspended with 10 ml of fresh medium, and then loaded to 96-well plate. While the assay initiated, 0.01˜200 μg/ml of Antrodia camphorata extract was added in each well, and the plate was incubated for 48 hours, at 37° C., 5% CO2. Each wall was added with 2.5 mg/ml MTT reagent in the dark. After 4 hours of reaction, 100 μl lysis buffer were added to each wall to terminate the reaction. […] The experiment data was represented by means±SD. All data was statistically analyzed by paired-t test, and a P-value less than 0.05 was considered significant.

[2] = system: MDA-MB-231 cell line (breast cancer); assay: MTT cell viability assay, MDA-MB-231 cell line (breast cancer); conditions: Homo sapiens; MDA-MB-231, MTT, 48 hours; read-out: half maximal inhibitory concentration (IC50), MDA-MB-231
Method: as §1, §2

[3] = system: PC3 cell line (prostate cancer); assay: MTT cell viability assay, PC3 cell line (prostate cancer); conditions: Homo sapiens, PC-3, 48 hours, read-out: half maximal inhibitory concentration (IC50), PC3
Method: as §1, §2

[4] = system: MCF-7 cell line (breast cancer); assay: MTT cell viability assay, MCF-7 cell line (breast cancer); conditions: Homo sapiens, MCF7; MCF-7, MTT, 48 hours; read-out: half maximal inhibitory concentration (IC50), MCF-7
Method: as §1, §2

[5] = system: A549 cell line (lung cancer); assay: MTT cell viability assay, A549 cell line (lung cancer); conditions: Homo sapiens, 48 hours, read-out: half maximal inhibitory concentration (IC50), A549
Method: as §1, §2

[6] = system: HepG2 cell line (liver cancer); assay: MTT cell viability assay, HepG2 cell line (liver cancer); conditions: Homo sapiens, 48 hours, read-out: half maximal inhibitory concentration (IC50), HepG2
Method: as §1, §2

[7] = system: DU145 cell line (prostate cancer); assay: MTT cell viability assay, DU145 cell line (prostate cancer); conditions: Homo sapiens; DU-145, MTT, 48 hours; read-out: half maximal inhibitory concentration (IC50), DU-145
Method: as §1, §2

[8] = Solvent (DMSO) cytotoxicity, cell death; conditions: DMSO content of diluted drug; cell line not stated
Method: The symbols used in tables respectively represent: 0-25% cell viability: +/−; 25˜50% cell viability: +; 50˜75% cell viability: ++, 75˜100% cell viability: +++, >100% cell viability: ++++. […] In this experiment, when the drug concentration was diluted to […], DMSO concentration was 0.5%.

SMILES	IC50 [1] [µg/mL]	IC50 [2] [µg/mL]	IC50 [3] [µg/mL]	IC50 [4] [µg/mL]	IC50 [5] [µg/mL]	IC50 [6] [µg/mL]	IC50 [7] [µg/mL]	IC50 value of the solvent (50% cell death) [8] [%]
COC1=C(OC)[C@H](O)[C@H](C/C=C(\C)CC/C=C(\C)C/C=C/C(C)(C)O)[C@@H](C)C1=O [Antrocamol LT3, (4R,5R,6R)-4-hydroxy-5-[(2E,6E,9E)-11-hydroxy-3,7,11-trimethyldodeca-2,6,9-trienyl]-2,3-dimethoxy-6-methylcyclohex-2-enone]	0.011 ± 0.001 (≈ 0.0271 µM)	1.01 ± 0.06 (≈ 2.48 µM)	0.009 ± 0.001 (≈ 0.0221 µM)	0.1 ± 0.01 (≈ 0.246 µM)	0.014 ± 0.002 (≈ 0.0344 µM)	0.004 ± 0.001 (≈ 0.00984 µM)	0.07 ± 0.001 (≈ 0.172 µM)	–
C[S+](C)[O-] [DMSO]	–	–	–	–	–	–	–	2.34
